Experimental findings from paper PMC4223017, “Structural Model of the hUbA1-UbcH10 Quaternary Complex: In Silico and Experimental Analysis of the Protein-Protein Interactions between E1, E2 and Ubiquitin” (PLoS ONE, 2014) are described below.

For data set [1], the target named is T1, GST-UbcH10 (Homo sapiens, UniProt O00762).
T1 construct: made in house; host or cells: E. coli BL21 (DE3) RP
T1 sequence (O00762 1-179): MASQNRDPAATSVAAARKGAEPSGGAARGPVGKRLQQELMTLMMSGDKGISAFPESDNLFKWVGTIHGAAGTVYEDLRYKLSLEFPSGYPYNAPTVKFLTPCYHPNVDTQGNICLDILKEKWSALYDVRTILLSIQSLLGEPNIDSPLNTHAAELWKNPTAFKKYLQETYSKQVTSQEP
Nature of the data set: ELISA binding of biotinylated peptides to coated GST-UbcH10. To be noted: for binding to UbcH10, in words: ELISA on recombinant GST-UbcH10, biotinylated peptides; for Kd / KD (µM): ELISA, wells coated overnight at 4°C with 100 µg/ml GST-UbcH10 in PBS 1X, 1 mM TCEP, biotinylated peptides at 2.2, 11, 22, 44, 108 µM in PBS 1X (1 mM TCEP for U1 and ScrU1), streptavidin-HRP, OPD, read at 490 nm, GraphPad Prism. The protocol:
The PCR product was cloned into pGEX-4T1 expression vector (GE Healthcare), leading to a protein with a cleavable N-terminal GST tag (GST-UbcH10). E. coli BL21 (DE3) RP strain was transformed with the recombinant plasmid for GST-UbcH10. Overnight cultures were used to inoculate 500 ml LB medium containing 50 µg/ml ampicillin, and protein induction was performed by the addition of 1 mM IPTG at 22°C when an OD600 value of 0.7 was reached. After approximately 16 h the cells were harvested and the proteins were isolated by sonicating cell pellets resuspended in 30 ml PBS1X in the presence of an EDTA free protease inhibitor cocktail (Roche Diagnostics). The crude cell extract was cleared by centrifugation at 18000 rpm and the supernatant was loaded onto a 1 ml GST-trap column connected to AKTA FPLC system (GE-Healthcare) equilibrated with binding buffer PBS1X. After washing with ten volumes of binding buffer, a single elution step was performed with 50 mM TrisHCl, 10 mM reduced glutathione. The fractions containing GST-UbcH10 were pooled and extensively dialyzed against PBS1X at 4°C. The homogeneity of the protein was tested by SDS–PAGE and mass spectrometry.
Wells were coated overnight at 4°C with 100 µg/ml GST-UbcH10 in PBS 1X, 1 mM TCEP, in the presence of an EDTA free protease inhibitor cocktail (Roche Diagnostics). Binding step was performed with different concentrations of biotinylated peptides L1, L2, ScrL2, U1, ScrU1, S2 (2.2, 11, 22, 44, 108 µM) in PBS 1X (with 1 mM TCEP for U1 and ScrU1). A blocking solution 1% BSA in PBS 1X, 0.05% Tween-20 was used. Washes were executed with PBS 1X, 0.05% Tween-20. To verify the interaction a 1∶10000 dilution of horseradish peroxidase-conjugated streptavidin (Sigma Aldrich) in 0.3% BSA, PBS 1X was incubated for 1 hour. The colorimetric reaction was carried out with SIGMA-FAST OPD reagent (Sigma Aldrich), according to the manufacturer's instructions. Finally, readings were performed at 490 nm on a Model680 MicroplateReader (Bio-Rad, Hercules, CA-USA), and data were recorded by Microplate Manager 5.2 program and elaborated by GraphPad Prism program. Negative control experiments with the fusion tag GST in coating were performed in the same conditions described above.
On the basis of the 3D model of the quaternary complex, we have designed six peptides as molecular probes in order to calibrate their ability to interfere the binding of UbcH10. This strategy was motivated by two main reasons. First, the identification of short peptides that mediate protein-protein interaction seemed a priori effective for disrupting the protein-protein recognition and binding. While other strategies, i.e. introduction of specific mutations, may also be envisaged, it is unclear whether single-point mutants might lead to a significant destabilization of the complex or even to impede the formation of the quaternary complex. Second, since our ultimate goal is the design of compounds that might disrupt the ubiquitilation process, testing a series of suitably chosen short peptides represents a valuable proof-of-concept for supporting the potential therapeutic effect of peptidomimetics. Specifically, the peptides were designed to examine the capability of hUbA1 stretches that contribute to the protein-protein interface with UbcH10 (Figure S7). In particular, we have designed two peptides per interface, which will be denoted S for SCCH region, L for cross loop, and U for UFD (Table 4). In the UFD region peptides U1 and U2 were selected to test the relevance of the acidic residues in mediating the binding of the UbcH10 H1 helix. […] Finally, peptides L1 and L2 were chosen to explore the role of the cross loop region in assisting the interaction with UbcH10. All the peptides were synthesized as biotinylated derivatives by solid phase method and purified by RP-HPLC. Unfortunately, S1 and U2 were insoluble and so not testable in binding assays. […]
For orientation: ELISA stands for enzyme-linked immunosorbent assay.

Data set [2] in a line: Solubility of the synthesized peptides (testability in binding assays). It counts as physicochemical. To be noted: for Solubility: biotinylated peptide, not testable in binding assays; for solubility, in words: biotinylated peptides. An excerpt:
On the basis of the 3D model of the quaternary complex, we have designed six peptides as molecular probes in order to calibrate their ability to interfere the binding of UbcH10. This strategy was motivated by two main reasons. First, the identification of short peptides that mediate protein-protein interaction seemed a priori effective for disrupting the protein-protein recognition and binding. While other strategies, i.e. introduction of specific mutations, may also be envisaged, it is unclear whether single-point mutants might lead to a significant destabilization of the complex or even to impede the formation of the quaternary complex. Second, since our ultimate goal is the design of compounds that might disrupt the ubiquitilation process, testing a series of suitably chosen short peptides represents a valuable proof-of-concept for supporting the potential therapeutic effect of peptidomimetics. Specifically, the peptides were designed to examine the capability of hUbA1 stretches that contribute to the protein-protein interface with UbcH10 (Figure S7). In particular, we have designed two peptides per interface, which will be denoted S for SCCH region, L for cross loop, and U for UFD (Table 4). In the UFD region peptides U1 and U2 were selected to test the relevance of the acidic residues in mediating the binding of the UbcH10 H1 helix. […] Finally, peptides L1 and L2 were chosen to explore the role of the cross loop region in assisting the interaction with UbcH10. All the peptides were synthesized as biotinylated derivatives by solid phase method and purified by RP-HPLC. Unfortunately, S1 and U2 were insoluble and so not testable in binding assays. The ability of the soluble peptides to bind recombinant GST-UbcH10 was checked by ELISA, utilizing GST as control (data not shown).

Data set [3] has as its target T2, GST-UbcH10 (UniProt O00762 1-179).
T2 construct: UbcH10, a Ubiquitin Conjugation Enzyme (E2); PCR product cloned into pGEX-4T1; The GST tag is cleavable but the fusion GST-UbcH10 was coated on the wells; PDB 1I7K (used only for modelling) lacks the first 30 residues and has Ser114; nothing says that the ELISA construct has these limits; also called E2; recombinant GST-UbcH10; source: E. coli BL21 (DE3) RP, purified (GST-trap column, dialysed …)
T2 sequence (looked up): T1 sequence (O00762 1-179)
Nature of the data set: ELISA; wells coated overnight at 4°C with 100 µg/ml GST-UbcH10 in PBS, 1 mM TCEP; biotinylated peptides at 2.2, 11, 22, 44, 108 µM in PBS (1 mM TCEP for U1 and ScrU1); detection with streptavidin-HRP, reading at 490 nm; apparent KD. The note with it: both partners purified.

Entries after “also recorded” stand apart in the source; their conditions may differ. Residues, ends and D or L forms follow the SMILES beside them. *: point of attachment. Biotin = O=C1N[C@H]2[C@H](CS[C@H]2CCCCC(=O)*)N1; Ahx = NCCCCCC(=O)O

Consider `C[C@@H](O)[C@H](NC(=O)[C@H](CCCCN)NC(=O)[C@H](CO)NC(=O)[C@@H]1CCCN1C(=O)[C@H](CC(=O)O)NC(=O)[C@H](CO)NC(=O)CCCCCNC(=O)CCCC[C@@H]1SC[C@@H]2NC(=O)N[C@@H]21)C(=O)N[C@@H](CO)C(=O)N[C@@H](CCC(=O)O)C(=O)N[C@@H](Cc1ccc(O)cc1)C(=O)N[C@@H](CCC(N)=O)C(=O)N1CCC[C@H]1C(=O)N[C@@H](CO)C(=O)N[C@@H](CCC(=O)O)C(N)=O` [ScrL2] ({Biotin-Ahx}-SDPSKTSEYQPSE-NH2), for which, in data set [1], the “binding to UbcH10, in words” value was “very poor binding” and the Kd is above 80 µM. For `CC(C)C[C@H](NC(=O)[C@H](CCC(=O)O)NC(=O)CCCCCNC(=O)CCCC[C@@H]1SC[C@@H]2NC(=O)N[C@@H]21)C(=O)N[C@@H](CC(N)=O)C(=O)N[C@@H](CS)C(=O)N[C@@H](CC(=O)O)C(=O)N[C@H](C(=O)N[C@@H](CCC(=O)O)C(=O)N[C@H](C(=O)N[C@@H](CCC(=O)O)C(=O)NCC(=O)N[C@@H](CO)C(=O)N[C@@H](CC(=O)O)C(=O)N[C@@H](CS)C(N)=O)C(C)C)C(C)C` [ScrU1] ({Biotin-Ahx}-ELNCDVEVEGSDC-NH2), in data set [1], the “binding to UbcH10, in words” value is “very poor binding” and the Kd was above 100 µM. Take “IHVSDQELQSA [S1, peptide from hUbA1 SCCH region (Cys-cap), residues 807-817, biotinylated derivative]”: in data set [2], the “Solubility” value is “Not soluble” and the “solubility, in words” value is “insoluble”. On to “LELCCNDESGEDV [U2, peptide from hUbA1 UFD region, residues 1036-1048, biotinylated derivative]”, for which, in data set [2], the “Solubility” value is “Not soluble” and the “solubility, in words” value is “insoluble; also recorded: low solubility”. As for “RDEFEGLFKQPAEN [S2, peptide corresponding to helix H19 in the hUbA1 SCCH region, residues 649-662, designed as negative control]”, the “KD (µM)” value in data set [1] was “No binding”. “SQDPPEKSIPI [L1, peptide from hUbA1 cross loop, residues 621-631, biotinylated derivative]”: in data set [1], the “binding to UbcH10, in words” value was “low affinity” and the “KD (µM)” value is “No binding”.

B1: U1-scrambled peptide (peptide)
peptide: {Biotin-Ahx}-ELNCDVEVEGSDC-NH2
modifications: cysteine pairing not given here
notes: scrambled order of the residues of peptide U1; also called ScrU1; source: synthetic peptide (Fmoc solid phase, RP-HPLC purified)
Consider B1, for which the Kd in data set [3] is above 100 µM.

B2: L2 peptide (hUbA1 cross loop, 615-627) (peptide)
peptide: {Biotin-Ahx}-TESYSSSQDPPEK-NH2
SMILES: C[C@@H](O)[C@H](NC(=O)CCCCCNC(=O)CCCC[C@@H]1SC[C@@H]2NC(=O)N[C@@H]21)C(=O)N[C@@H](CCC(=O)O)C(=O)N[C@@H](CO)C(=O)N[C@@H](Cc1ccc(O)cc1)C(=O)N[C@@H](CO)C(=O)N[C@@H](CO)C(=O)N[C@@H](CO)C(=O)N[C@@H](CCC(N)=O)C(=O)N[C@@H](CC(=O)O)C(=O)N1CCC[C@H]1C(=O)N1CCC[C@H]1C(=O)N[C@@H](CCC(=O)O)C(=O)N[C@@H](CCCCN)C(N)=O
notes: human UbA1 (E1), cross loop region, residues 615-627; source: synthetic peptide (Fmoc solid phase, RP-HPLC purified)
Take B2: in data set [3], the Kd was found to be 20 µM.

B3: L2-scrambled peptide (peptide)
peptide: {Biotin-Ahx}-SDPSKTSEYQPSE-NH2
SMILES: C[C@@H](O)[C@H](NC(=O)[C@H](CCCCN)NC(=O)[C@H](CO)NC(=O)[C@@H]1CCCN1C(=O)[C@H](CC(=O)O)NC(=O)[C@H](CO)NC(=O)CCCCCNC(=O)CCCC[C@@H]1SC[C@@H]2NC(=O)N[C@@H]21)C(=O)N[C@@H](CO)C(=O)N[C@@H](CCC(=O)O)C(=O)N[C@@H](Cc1ccc(O)cc1)C(=O)N[C@@H](CCC(N)=O)C(=O)N1CCC[C@H]1C(=O)N[C@@H](CO)C(=O)N[C@@H](CCC(=O)O)C(N)=O
notes: scrambled order of the residues of peptide L2; also called ScrL2; source: synthetic peptide (Fmoc solid phase, RP-HPLC purified)
For the molecule B3, the Kd in data set [3] was above 80 µM.

B4: U1 peptide (hUbA1 UFD region, 1038-1050) (peptide)
peptide: {Biotin-Ahx}-LCCNDESGEDVEV-NH2
modifications: cysteine pairing not given here
notes: human UbA1 (E1), UFD region, residues 1038-1050; source: synthetic peptide (Fmoc solid phase, RP-HPLC purified)
For the molecule B4, the Kd in data set [3] was found to be 10 µM.
